Measured values from patent US6783775B2, “Serum-derived factor inducing cell differentiation and medical uses thereof” (Hadasit Medical Research Services and Development Ltd., priority 1996, dated 2004).

Tests used:
[1] = system: normal hemopoietic progenitor cells; assay: Indirect cloning (two-phase culture) of normal hemopoietic progenitors; type: cell-based, human; conditions: indirect cloning system, control (0) 70
Procedure: Indirect cloning: Cells were prepared as described for direct cloning, were first incubated for several days in liquid culture supplemented with or without the indicated growth factors or tested fraction, then washed. and cloned in semi-solid medium as described above.
Expansion of normal hemopoietic progenitors—In order to test the effect of SDF on early and late normal hemopoietic progenitors a two-phase culture procedure was employed:
Phase 1 (Expansion phase)—Light density BM or PB cells were incubated for several days in liquid medium supplemented with SDF.
Phase 2 (Clonal phase)—At the end of phase 1, cells were harvested, washed and recultured in either semi solid medium or in liquid medium supplemented with either recombinant human late growth/differentiation factors like GM-CSF, Epo, or 5637-CM, which contains GM, G-CSF. IL-6, IL-1 and other cytokines, but not Epo. […] The lineage specific differentiation of the colonies in Phase 2 depended on the late factor present, e.g., Epo for CFU-E and GM-CSF for CFU-GM.

[2] = system: HL-60 cells; assay: Cell proliferation assay (3H-thymidine incorporation) on HL-60 cells; type: cell-based, human
Procedure: (§1) Cell lines included the human myelomonocytic cells HL-60, GM-CSF-dependent human myelomonocytic cells LK (established in the inventors' laboratory) and the murine monocytic cell line WEHI. Cell lines were maintained by sub-culturing every 3-4 days at 2.5×10^5 cell/ml in either alpha minimal essential or RPMI-1640 media (GIBCO, Grand Island, N.Y.) supplemented with 10-20% fetal calf serum (FCS) (Bio Labs Jerusalem, Israel). The cultures were incubated at 37° C., in a humidified atmosphere of 5% CO2 in air. The concentration of viable cells was determined by the trypan blue exclusion technique. Total cell count was performed using a Coulter counter.
HL-60 or other cells were cultured at 1.3×10^5/ml in 24-well dish and medium containing 0.5% heat-inactivated FCS and various dilutions of the tested fractions. DNA synthesis was determined on day 4 by incorporation of ^3[H]-thymidine ([…]/150 μl) (5 mCi/mmol, ICN Radiochemicals, Irvine, Calif.) added 12 hrs before harvesting. One unit of SDF was defined as the amount per milliliter required for 50% decrease in ^3H-thymidine incorporation.

[3] = system: HL-60 cells; assay: Leukemic cell cloning (colony formation) of HL-60 cells in semi-solid medium; type: cell-based, human; conditions: HL-60 600 cells/ml; 8 days; mean of two experiments; G-CSF 1000 U/ml, IL-1 100 U/ml
Procedure: as §1
(§2) 300-1000 cells/ml were seeded in semi-solid medium composed of 0.83% methyl-cellulose (Fisher Scientific company, Fair Lawn, N.J.) or 0.3% Bacto agar (Difco laboratories, Detroit, Mich.) in alpha medium supplemented with 10% FCS. Colony number was scored with an inverted microscope on day 8. In order to determine cellular maturation, single colonies were picked up with a fine capillary tube, smeared on a glass slide and stained.

[4] = system: WEHI cells; assay: Leukemic cell cloning (colony formation) of WEHI cells in semi-solid medium; type: cell-based, murine; conditions: WEHI 300 cells/ml; 8 days; mean of two experiments; G-CSF 100 U/ml, IL-1 100 U/ml
Procedure: as §1, §2

With `O=C(O)c1cc(C(=O)O)c2c(n1)C(=O)C(=O)c1cc(C(=O)O)[nH]c1-2` [PQQ, pyrroloquinoline quinone] the “Colony No.” value ([1]; PQQ concentration 0.01 μg/ml) was 89, the “Colony No.” value ([1]; PQQ concentration 0.1 μg/ml) was 109 and the “Colony No.” value ([1]; PQQ concentration 1 μg/ml) was 130. The “Colony No.” value ([1]; PQQ concentration 5 μg/ml) was 148, the inhibition at 0.01 µg/mL ([2]; Homo sapiens, HL-60, PQQ concentration 0.01 μg/ml, HL60 cells, read-out: Growth inhibition (%)) was 0% and the inhibition at 0.05 µg/mL ([2]; Homo sapiens, HL-60, PQQ concentration 0.05 μg/ml, HL60 cells, read-out: Growth inhibition (%)) was 30%. The inhibition at 0.1 µg/mL ([2]; Homo sapiens, HL-60, PQQ concentration 0.1 μg/ml, HL60 cells, read-out: Growth inhibition (%)) was 30%, the inhibition at 0.5 µg/mL ([2]; Homo sapiens, HL-60, PQQ concentration 0.5 μg/ml, HL60 cells, read-out: Growth inhibition (%)) was 40% and the inhibition at 1 µg/mL ([2]; Homo sapiens, HL-60, PQQ concentration 1 μg/ml, HL60 cells, read-out: Growth inhibition (%)) was 40%. For the same molecule, the inhibition at 5 µg/mL ([2]; Homo sapiens, HL-60, PQQ concentration 5 μg/ml, HL60 cells, read-out: Growth inhibition (%)) was 60%.

`CC1=C(/C=C/C(C)=C/C=C/C(C)=C/C(=O)O)C(C)(C)CCC1` [Retinoic acid] was tested, and the “Colonies: Diffused (fully differentiated)” value [3] was 114, the “Colonies: Partially diffused (partially differentiated)” value (from here on “Colonies … (partially differentiated)”) [3] was 49 and the “Colonies: Tight (undifferentiated)” value [3] was 0. The “Colonies: Total” value [3] was 163.

B1: G-CSF: growth factor (colony stimulating factor) used for comparison (protein, UniProt P09919 31-207, looked up)
Granulocyte …: TPLGPASSLPQSFLLKCLEQVRKIQGDGAALQEKLVSECATYKLCHPEELVLLGHSLGIPWAPLSSCPSQALQLAGCLSQLHSGLFLYQGLLQALEGISPELGPTLDTLQLDVADFATTIWQQMEELGMAPALQPTQGAMPAFASAFQRRAGGVLVASHLQSFLEVSYRVLRHLAQP
B1 was tested, and the “Colonies: Diffused (fully differentiated)” value [4] was 51, the “Colonies … (partially differentiated)” value [4] was 55 and the “Colonies: Tight (undifferentiated)” value [4] was 25. For the same molecule, the “Colonies: Total” value [4] was 132, the “Colonies: Diffused (fully differentiated)” value [3] was 0 and the “Colonies … (partially differentiated)” value [3] was 12. For the same molecule, the “Colonies: Tight (undifferentiated)” value [3] was 325 and the “Colonies: Total” value [3] was 337.

B2: ceruloplasmin (protein, UniProt P00450 20-1065, looked up)
Ceruloplasmin: KEKHYYIGIIETTWDYASDHGEKKLISVDTEHSNIYLQNGPDRIGRLYKKALYLQYTDETFRTTIEKPVWLGFLGPIIKAETGDKVYVHLKNLASRPYTFHSHGITYYKEHEGAIYPDNTTDFQRADDKVYPGEQYTYMLLATEEQSPGEGDGNCVTRIYHSHIDAPKDIASGLIGPLIICKKDSLDKEKEKHIDREFVVMFSVVDENFSWYLEDNIKTYCSEPEKVDKDNEDFQESNRMYSVNGYTFGSLPGLSMCAEDRVKWYLFGMGNEVDVHAAFFHGQALTNKNYRIDTINLFPATLFDAYMVAQNPGEWMLSCQNLNHLKAGLQAFFQVQECNKSSSKDNIRGKHVRHYYIAAEEIIWNYAPSGIDIFTKENLTAPGSDSAVFFEQGTTRIGGSYKKLVYREYTDASFTNRKERGPEEEHLGILGPVIWAEVGDTIRVTFHNKGAYPLSIEPIGVRFNKNNEGTYYSPNYNPQSRSVPPSASHVAPTETFTYEWTVPKEVGPTNADPVCLAKMYYSAVEPTKDIFTGLIGPMKICKKGSLHANGRQKDVDKEFYLFPTVFDENESLLLEDNIRMFTTAPDQVDKEDEDFQESNKMHSMNGFMYGNQPGLTMCKGDSVVWYLFSAGNEADVHGIYFSGNTYLWRGERRDTANLFPQTSLTLHMWPDTEGTFNVECLTTDHYTGGMKQKYTVNQCRRQSEDSTFYLGERTYYIAAVEVEWDYSPQREWEKELHHLQEQNVSNAFLDKGEFYIGSKYKKVVYRQYTDSTFRVPVERKAEEEHLGILGPQLHADVGDKVKIIFKNMATRPYSIHAHGVQTESSTVTPTLPGETLTYVWKIPERSGAGTEDSACIPWAYYSTVDQVKDLYSGLIGPLIVCRRPYLKVFNPRRKLEFALLFLVFDENESWYLDDNIKTYSDHPEKVNKDDEEFIESNKMHAINGRMFGNLQGLTMHVGDEVNWYLMGMGNEIDLHTVHFHGHSFQYKHRGVYSSDVFDIFPGTYQTLEMFPRTPGIWLLHCHVTDHIHAGMETTYTVLQNEDTKSG
B2 was tested, and the “activity of the CP fraction separated from SDF” value ([2]; CP fraction eluted at about 40% acetonitrile from RP-HPLC Resource column) was “devoid of activity”.
